Values quoted from earlier work, collected in patent US20150283148A1, “ARRANGEMENT OF SPECIFIC ANTIDOTES WITH ALLOPATHIC MEDICINAL PREPARATIONS IN GENERAL SECONDARY PACKAGE” (priority 2014, published 2015).

Conditions: predicted by algorithm

SMILES: NS(=O)(=O)Cc1noc2ccccc12 [Zonisamide]
- predicted latent side effect: suicidal thoughts
